In patent US7342000B2, “Semisynthetic macrolide antibiotics of the azalide series” (GlaxoSmithKline istrazivacki center Zagreb, priority 2002, dated 2008):

Tests used:
Assay in all cases: MIC by broth dilution (NCCLS M7-A2)
Type in all cases: cell-based
Details in all cases: 90% growth inhibition
[1] = test system: S. pneumoniae
Text: (§1) MIC levels for all compound were determinated on panel of susceptible, and resistant Gram positive bacterial strains (S. aureus, S. pneumoniae and S. pyogenes) and on Gram negative strains (E. coli, H. influenzae, […], M. catarrhalis).

[2] = test system: S. pyogenes
Text: as §1

[3] = test system: S. aureus ATCC 13709
Text: as §1

[4] = test system: S. pyogenes M
Text: as §1

[5] = test system: H. influenzae ATCC 49247
Text: as §1

[6] = test system: E. faecalis ATCC 29212
Text: as §1

[7] = test system: S. pyogenes iMLS
Text: as §1

[8] = test system: M. catarrhalis ATCC 23246
Text: as §1

[9] = test system: E. coli ATCC 25922
Text: as §1

With `CC[C@H]1OC(=O)[C@H](C)[C@@H](O[C@H]2C[C@@](C)(OC)[C@@H](O)[C@H](C)O2)[C@H](C)[C@@H](O[C@@H]2O[C@H](C)C[C@H](N(C)C)[C@H]2O)[C@](C)(O)C[C@@H](C)CN(CCCNC(=O)N(CCC#N)c2ccc3ccccc3c2)[C@H](C)[C@@H](O)[C@]1(C)O` [Example 38, 9-Deoxo-9-dihydro-9a-N-[N′-(β-cyanoethyl)-N′-(2-naphtyl)carbamoyl-γ-aminopropyl]-9a-aza-9a-homoerithromycin A] the MIK [1] was “≦0.125 μg/ml”, the MIK [2] was “≦0.125 μg/ml” and the MIK [3] was 1 µg/mL. It also gave an MIK [4] of 8 µg/mL, an MIK [5] of 2 µg/mL and an MIK [6] of 8 µg/mL. The MIK [7] was 2 µg/mL, the MIK [8] was 0.5 µg/mL and the MIK [9] was 32 µg/mL.

`CC[C@H]1OC(=O)[C@H](C)[C@@H](O[C@H]2C[C@@](C)(OC)[C@@H](O)[C@H](C)O2)[C@H](C)[C@@H](O[C@@H]2O[C@H](C)C[C@H](N(C)C)[C@H]2O)[C@](C)(O)C[C@@H](C)CN(CCCNC(=S)NCCCc2ccccc2)[C@H](C)[C@@H](O)[C@]1(C)O` [Example 7, 9-Deoxo-9-dihydro-9a-N-[N′-(3-phenylpropyl)thiocarbamoyl-γ-aminopropyl]-9a-aza-9a-homoerithromycin A] was tested, and the MIK [1] was “≦0.125 μg/ml”, the MIK [2] was “≦0.125 μg/ml” and the MIK [3] was 1 µg/mL. For the same compound, the MIK [4] was 8 µg/mL, the MIK [5] was 2 µg/mL and the MIK [6] was 16 µg/mL. The MIK [7] was 4 µg/mL, the MIK [8] was 1 µg/mL and the MIK [9] was 16 µg/mL.

For `CC[C@H]1OC(=O)[C@H](C)[C@@H](O[C@H]2C[C@@](C)(OC)[C@@H](O)[C@H](C)O2)[C@H](C)[C@@H](O[C@@H]2O[C@H](C)C[C@H](N(C)C)[C@H]2O)[C@](C)(O)C[C@@H](C)CN(CCCNC(=O)NCCc2ccccc2)[C@H](C)[C@@H](O)[C@]1(C)O` [Example 8, 9-Deoxo-9-dihydro-9a-N-[N′-(β-phenylethyl)carbamoyl-γ-aminopropyl]-9a-aza-9a-homoerithromycin A], the MIK [1] was “≦0.125 μg/ml”, the MIK [2] was “≦0.125 μg/ml” and the MIK [3] was 1 µg/mL. It also gave an MIK [4] of 8 µg/mL, an MIK [5] of 2 µg/mL and an MIK [6] of 16 µg/mL. For the same compound, the MIK [7] was 4 µg/mL, the MIK [8] was 1 µg/mL and the MIK [9] was 32 µg/mL.

In the case of `CCC1OC(=O)C(C)C(OC2CC(C)(OC)C(O)C(C)O2)C(C)C(OC2OC(C)CC(N(C)C)C2O)C(C)(O)CC(C)CN(CCCNC(=S)N(CCC#N)Cc2ccccc2)C(C)C(O)C1(C)O` (stereo not drawn) [Example 30, 9-Deoxo-9-dihydro-9a-N-[N′-(β-cyanoethyl)-N′-benzylthiocarbamoyl-γ-aminopropyl]-9a-aza-9a-homoerithromycin A], the MIK [1] is reported as “≦0.125 μg/ml”, the MIK [2] is reported as “≦0.125 μg/ml” and the MIK [3] is reported as 1 µg/mL. The MIK [4] was 4 µg/mL, the MIK [5] was 2 µg/mL and the MIK [6] was 8 µg/mL. It also gave an MIK [7] of 2 µg/mL, an MIK [8] of 1 µg/mL and an MIK [9] of 16 µg/mL.

“9-Deoxo-9-dihydro-9a-N-{N′-(β-cyanoethyl)-N′-[1-(1-naphtyl)ethyl]carbamoyl-γ-aminopropyl}-9a-aza-9a-homoerithromycin A [Example 36]” was tested, and the MIK [1] was “≦0.125 μg/ml”, the MIK [2] was “≦0.125 μg/ml” and the MIK [3] was 2 µg/mL. It also gave an MIK [4] of 16 µg/mL, an MIK [5] of 2 µg/mL and an MIK [6] of 16 µg/mL. The MIK [7] was 8 µg/mL, the MIK [8] was 4 µg/mL and the MIK [9] was 64 µg/mL.

With `CC[C@H]1OC(=O)[C@H](C)[C@@H](O[C@H]2C[C@@](C)(OC)[C@@H](O)[C@H](C)O2)[C@H](C)[C@@H](O[C@@H]2O[C@H](C)C[C@H](N(C)C)[C@H]2O)[C@](C)(O)C[C@@H](C)CN(CCCNC(=O)NC(C)C)[C@H](C)[C@@H](O)[C@]1(C)O` [Example 1, 9-Deoxo-9-dihydro-9a-N-(N′-isopropylcarbainoyl-γ-aminopropyl)-9a-aza-9a-homoerithromycin A] the MIK [1] was “≦0.125 μg/ml”, the MIK [2] was “≦0.125 μg/ml” and the MIK [3] was 2 µg/mL. It also gave an MIK [4] of 32 µg/mL, an MIK [5] of 32 µg/mL and an MIK [6] of 32 µg/mL. For the same compound, the MIK [7] was 8 µg/mL, the MIK [8] was 0.5 µg/mL and the MIK [9] was 16 µg/mL.

With `CC[C@H]1OC(=O)[C@H](C)[C@@H](O[C@H]2C[C@@](C)(OC)[C@@H](O)[C@H](C)O2)[C@H](C)[C@@H](O[C@@H]2O[C@H](C)C[C@H](N(C)C)[C@H]2O)[C@](C)(O)C[C@@H](C)CN(CCCNC(=S)Nc2cccc3ccccc23)[C@H](C)[C@@H](O)[C@]1(C)O` [Example 5] the MIK [1] was “≦0.125 μg/ml”, the MIK [2] was “≦0.125 μg/ml” and the MIK [3] was 2 µg/mL. The MIK [4] was 4 µg/mL, the MIK [5] was 2 µg/mL and the MIK [6] was 4 µg/mL. For the same compound, the MIK [7] was 4 µg/mL, the MIK [8] was 2 µg/mL and the MIK [9] was 8 µg/mL.

In the case of “9-Deoxo-9-dihydro-9a-N-[N′-(β-cyanoethyl)-N′-benzylcarbamoyl-γ-aminopropyl]-9a-aza-9a-homoerithromycin A [Example 29]”, the MIK [1] is reported as “≦0.125 μg/ml”, the MIK [2] is reported as “≦0.125 μg/ml” and the MIK [3] is reported as 2 µg/mL. It also gave an MIK [4] of 64 µg/mL, an MIK [5] of 32 µg/mL and an MIK [6] greater than 64 µg/mL. The MIK [7] was 16 µg/mL, the MIK [8] was 4 µg/mL and the MIK [9] was greater than 64 µg/mL.

`CC[C@H]1OC(=O)[C@H](C)[C@@H](O[C@H]2C[C@@](C)(OC)[C@@H](O)[C@H](C)O2)[C@H](C)[C@@H](O[C@@H]2O[C@H](C)C[C@H](N(C)C)[C@H]2O)[C@](C)(O)C[C@@H](C)CN(CCCNC(=O)N(CCC#N)c2ccccc2C(F)(F)F)[C@H](C)[C@@H](O)[C@]1(C)O` [Example 32, 9-Deoxo-9-dihydro-9a-N-[N′-(β-cyanoethyl)-N′-(2-(trifluoromethyl)phenyl)carbamoyl-γ-aminopropyl]-9a-aza-homoerithromycin A] was tested, and the MIK [1] was “≦0.125 μg/ml”, the MIK [2] was “≦0.125 μg/ml” and the MIK [3] was 4 µg/mL. The MIK [4] was 32 µg/mL, the MIK [5] was 16 µg/mL and the MIK [6] was 64 µg/mL. The MIK [7] was 8 µg/mL, the MIK [8] was 8 µg/mL and the MIK [9] was 32 µg/mL.

`CC[C@H]1OC(=O)[C@H](C)[C@@H](O[C@H]2C[C@@](C)(OC)[C@@H](O)[C@H](C)O2)[C@H](C)[C@@H](O[C@@H]2O[C@H](C)C[C@H](N(C)C)[C@H]2O)[C@](C)(O)C[C@@H](C)CN(CCCNC(=S)N(CCC#N)c2cccc3ccccc23)[C@H](C)[C@@H](O)[C@]1(C)O` [Example 31, 9-Deoxo-9-dihydro-9a-N-[N′-(β-cyanoethyl)-N′-(1-naphtyl)thiocarbamoyl-γ-aminopropyl]-9a-aza-9a-homoerithromycin A] was tested, and the MIK [1] was “≦0.125 μg/ml”, the MIK [2] was “≦0.125 μg/ml” and the MIK [3] was 4 µg/mL. The MIK [4] was 4 µg/mL, the MIK [5] was 2 µg/mL and the MIK [6] was 4 µg/mL. It also gave an MIK [7] of 4 µg/mL, an MIK [8] of 2 µg/mL and an MIK [9] of 8 µg/mL.
